Test results published in patent US20020022586A1, “Method for treating a patient with neoplasia by treatment with a pyrimidine analog” (priority 1998, published 2002).

Columns and labels:
cGMP-PDE [1] = system: T1, cGMP-PDE; test: cGMP-PDE inhibition assay, enzyme from HT-29 tumor cells; type: biochemical, human; design: PDE Inhibition: key to the marks not given beside the values
T1 construct: other: 10 μM; other: 100 μM; other: enzyme from HT-29 cells; other: 20 μM

cGMP-PDE [2] = test: as above; type: biochemical, human; design: PDE Inhibition: key to the marks not given beside the values; conditions: activity profile
HT-29 cells [3] = test: HT-29 tumor cell growth inhibition, SRB assay; type: cell-based, human; design: Growth Inhibition: key to the marks not given beside the values
HT-29 cells [4] = test: Apoptosis by DNA fragmentation assay in HT-29 cells; type: cell-based, human; design: Apoptosis: key to the marks not given beside the values
COX = COX inhibition; type: biochemical
[5] = system: premalignant lesions in mouse mammary gland organ culture; test: Mammary gland organ culture model; type: cell-based; conditions: activity profile; further: key: −: Not active; +: Slightly active; ++: Moderately active; +++: Strongly active; ++++: Highly active
Method: For example, female BALB/c mice can be treated with a combination of estradiol and progesterone daily, in order to prime the glands to be responsive to hormones in vitro. The animals are sacrificed and thoracic mammary glands are excised aseptically and incubated for ten days in growth media supplemented with insulin, prolactin, hydrocortisone, and aldosterone. DMBA (7,12-dimethylbenz(a)anthracene) is added to medium to induce the formation of premalignant lesions. Fully developed glands are then deprived of prolactin, hydrocortisone, and aldosterone, resulting in the regression of the glands but not the premalignant lesions.
The test compound is dissolved in DMSO and added to the culture media for the duration of the culture period. At the end of the culture period, the glands are fixed in 10% formalin, stained with alum carmine, and mounted on glass slides. The extent of the area occupied by the mammary lesions can be quantitated by projecting an image of the gland onto a digitation pad. The area covered by the gland is traced on the pad and considered as 100% of the area. The space covered by each of the unregressed structures is also outlined on the digitization pad and quantitated by the computer.
The incidence of forming mammary lesions is the ratio of the glands with mammary lesions to […]. The incidence of mammary lesions in test compound treated glands is compared with that of the untreated glands.
Mammary gland organ culture experiments were performed as previously described (Mehta and Moon, Cancer Research, 46: 5832-5835, 1986). […] The data support the hypothesis that cyclooxygenase inhibition is not necessary for the anti-neoplastic properties of desired compounds.

PDE4 = PDE4 inhibition assay, enzyme from HT-29 tumor cells; type: biochemical, human; conditions: enzyme from HT-29 cells
Method: Cyclic GMP labeled with tritium (^3H-cGMP) is used as the substrate for the PDE enzymes. (Thompson, W. J., Teraski, W. L., Epstein, P. M., Strada, S. J., Advances in Cyclic Nucleotide Research, 10:69-92, 1979, which is incorporated herein by reference).
In brief, a solution of defined substrate ^3H-cGMP specific activity is mixed with the drug to be tested. The mixture is incubated with isolated PDE activity (either a single PDE or a mixture of PDE activities). The degree of phosphodiesterase inhibition is determined by calculating the amount of radioactivity released in drug-treated reactions and comparing those against a control sample (a reaction mixture lacking the tested compound but with the drug solvent).
Reference compounds and test compounds were analyzed for their cGMP-PDE inhibitory activity in accordance with the protocol for the assay described supra. […] Both compounds show selectivity for the cGMP-PDE isoenzyme forms over PDE4 isoforms.

Compound: COc1cc(/C=C2/C(C)=C(CC(=O)O)c3cc(F)ccc32)cc(OC)c1OC [Compound B, (Z)-5-Fluoro-2-methyl-1-(3,4,5-trimethoxybenzylidene)-3-acetic acid]
- cGMP PDE % Inhibition at 100 μM (cGMP-PDE [1]; 100 μM): <25%
- IC50 (cGMP-PDE [1]; enzyme from HT-29 cells): 18 µM
- PDE Inhibition (cGMP-PDE [2]): +++
- inhibition at 100 µM (HT-29 cells [3]; Homo sapiens, HT-29, 100 μM single dose, read-out: Growth inhibitory activity, % Inhibition at 100 μM): 77%
- Growth Inhibition (HT-29 cells [3]; activity profile): +++
- fold induction at 100 µM (HT-29 cells [4]; Homo sapiens, HT-29, 100 μM, read-out: Apoptosis inducing activity, Fold induction at 100 μM): > 2
- EC50 (HT-29 cells [4]; Homo sapiens, HT-29, 48 hours, DNA fragmentation, read-out: EC50 for apoptosis induction): ~175 µM
- Apoptosis (HT-29 cells [4]; activity profile): +++
- COX Inhibition (COX; 100 μM): did not inhibit COX
- COX Inhibition (COX; activity profile): −
- Mammary Gland Organ Culture [5]: ++
- IC50 (PDE4): 58 µM
